Assay results from patent US9512128B2 (BAYER CROPSCIENCE AG, priority 2012, dated 2016).
Where two headings read alike, the source gives them in different places.

How the values were obtained:
[1] = system: greenhouse red spider mite (Tetranychus urticae); assay: Tetranychus urticae spray test, OP-resistant (TETRUR); type: in vivo; settings: after 6 days, bean leaf discs
Method: 4. Tetranychus urticae Spray Test, OP-Resistant (TETRUR)
• Solvents: 78.0 parts by weight of acetone • 1.5 part by weight of dimethylformamide • Emulsifier: 0.5 part by weight of alkylaryl polyglycol ether
To produce a suitable preparation of active compound, 1 part by weight of active compound is mixed with the stated amounts of solvents and emulsifier, and the concentrate is diluted with emulsifier-containing water to the desired concentration.
Discs of bean leaves (Phaseolus vulgaris) which are infested by all stages of the greenhouse red spider mite (Tetranychus urticae) are sprayed with an active compound preparation of the desired concentration.
After 6 days, the efficacy in % is determined. 100% means that all of the spider mites have been killed; 0% means that none of the spider mites have been killed.

[2] = log P by HPLC on reversed-phase columns (C 18), EEC directive 79/831 Annex V.A8; type: physicochemical; settings: for logP[a]: method [a]; for logP[b]: method [b]
Method: The log P values were determined according to EEC directive 79/831 Annex V.A8 by HPLC (High Performance Liquid Chromatography) on reversed-phase columns (C 18), using the methods below:
[a] The LC-MS determination in the acidic range is carried out at pH 2.7 with 0.1% aqueous formic acid and acetonitrile (contains 0.1% formic acid) as mobile phases; linear gradient from 10% acetonitrile to 95% acetonitrile.
[b] The LC-MS determination in the neutral range is carried out at pH 7.8 using the mobile phases 0.001 molar aqueous ammonium bicarbonate solution and acetonitrile; linear gradient from 10% acetonitrile to 95% acetonitrile.

[3] = acidic range, pH 2.7, 0.1% aqueous formic acid / acetonitrile, read-out: log P[a]
[4] = neutral range, pH 7.8, 0.001 molar aqueous ammonium bicarbonate / acetonitrile, read-out: log P[b]
[5] = reversed-phase C18 HPLC column, pH 2.7, acidic range, pH 2.7, 0.1% aqueous formic acid / acetonitrile, read-out: log P[a]
[6] = reversed-phase C18 HPLC column, pH 7.8, neutral range, pH 7.8, 0.001 molar aqueous ammonium bicarbonate / acetonitrile, read-out: log P[b]

Cn1ncc2c(=O)n(-c3ccc(C#N)c([S+]([O-])CC(F)(F)F)c3)cnc21 (racemic) [Compound 26]
efficacy in % (spider mites killed) ([1]; application rate 500 g/ha): 90%
logP[a] [2]: 1.51
logP[b] [2]: 1.56

CCn1cnc2c(=O)n(-c3cc([S+]([O-])CC(F)(F)F)c(C)cc3F)cnc21 (racemic) [Compound 54]
efficacy in % (spider mites killed) ([1]; application rate 500 g/ha): 100%
logP[a] [2]: 1.60
logP[b] [2]: 1.59

Cc1cc(F)c(-n2c(C)nc3c(cnn3CC(F)(F)F)c2=O)cc1SCC(F)(F)F [Compound 20]
efficacy in % (spider mites killed) ([1]; application rate 500 g/ha): 90%
logP[a] [2]: 3.50
logP[b] [2]: 3.44

Cc1cc(F)c(-n2cnc3cnn(C)c3c2=O)cc1SCC(F)(F)F [Compound 38]
efficacy in % (spider mites killed) ([1]; application rate 500 g/ha): 90%
logP[a] [2]: 2.76
logP[b] [2]: 2.76

Cc1cc(F)c(-n2c(C)nc3cnn(C)c3c2=O)cc1SCC(F)(F)F [Compound 39]
efficacy in % (spider mites killed) ([1]; application rate 500 g/ha): 90%
logP[a] [2]: 2.94
logP[b] [2]: 2.87

CCn1ncc2c(=O)n(-c3cc([S+]([O-])CC(F)(F)F)c(C)cc3F)cnc21 (stereo not shown) [Compound 126]
efficacy in % (spider mites killed) ([1]; application rate 500 g/ha): 90%

CCn1ncc2c(=O)n(-c3cc([S+]([O-])CC(F)(F)F)c(C)cc3F)c(C)nc21 (stereo not shown) [Compound 127]
efficacy in % (spider mites killed) ([1]; application rate 500 g/ha): 100%

Cc1cc(F)c(-n2cnc3c(C)nn(C)c3c2=O)cc1SCC(F)(F)F [Compound 128]
efficacy in % (spider mites killed) ([1]; application rate 500 g/ha): 100%

Cc1cc(C)c(-n2cnc3cnn(C)c3c2=O)cc1SCC(F)(F)F [Compound 130]
efficacy in % (spider mites killed) ([1]; application rate 500 g/ha): 100%

Cc1cc(C)c(-n2c(C)nc3cnn(C)c3c2=O)cc1SCC(F)(F)F [Compound 131]
efficacy in % (spider mites killed) ([1]; application rate 500 g/ha): 90%

Cc1cc(C)c([S+]([O-])CC(F)(F)F)cc1-n1nnc2cnn(C)c2c1=O (stereo not shown) [Compound 132]
efficacy in % (spider mites killed) ([1]; application rate 500 g/ha): 100%

Cc1cc(C)c(-n2nnc3cnn(C)c3c2=O)cc1SCC(F)(F)F [Compound 133]
efficacy in % (spider mites killed) ([1]; application rate 500 g/ha): 90%

Cc1cc(C)c([S+]([O-])CC(F)(F)F)cc1-n1c(C)nc2cnn(C)c2c1=O (stereo not shown) [Compound 135]
efficacy in % (spider mites killed) ([1]; application rate 500 g/ha): 90%

Cc1cc(F)c(-n2nnc3cnn(C)c3c2=O)cc1SCC(F)(F)F [Compound 137]
efficacy in % (spider mites killed) ([1]; application rate 500 g/ha): 100%

Cc1ccc(-n2cnc3cnn(C)c3c2=O)cc1SCC(F)(F)F [Compound 138]
efficacy in % (spider mites killed) ([1]; application rate 500 g/ha): 100%

Cc1cc(F)c(-n2c(C)nc3cnn(C)c3c2=O)cc1SCC(F)(F)F [Compound 139]
efficacy in % (spider mites killed) ([1]; application rate 500 g/ha): 100%

Cn1ncc2ncn(-c3cc(SCC(F)(F)F)c(Cl)cc3Cl)c(=O)c21 [Compound 140]
efficacy in % (spider mites killed) ([1]; application rate 500 g/ha): 100%

Cn1ncc2ncn(-c3cc([S+]([O-])CC(F)(F)F)c(Cl)cc3Cl)c(=O)c21 (stereo not shown) [Compound 143]
efficacy in % (spider mites killed) ([1]; application rate 500 g/ha): 100%

Cc1nc2cnn(C)c2c(=O)n1-c1cc(SCC(F)(F)F)c(Cl)cc1Cl [Compound 144]
efficacy in % (spider mites killed) ([1]; application rate 500 g/ha): 90%

Cc1ccc(-n2c(C)nc3cnn(C)c3c2=O)cc1[S+]([O-])CC(F)(F)F (stereo not shown) [Compound 145]
efficacy in % (spider mites killed) ([1]; application rate 500 g/ha): 100%

Cn1ncc2nnn(-c3cc(SCC(F)(F)F)c(Cl)cc3F)c(=O)c21 [Compound 150]
efficacy in % (spider mites killed) ([1]; application rate 500 g/ha): 100%

Cc1cc(Cl)c(-n2cnc3cnn(C)c3c2=O)cc1SCC(F)(F)F [Compound 151]
efficacy in % (spider mites killed) ([1]; application rate 500 g/ha): 100%

Cc1cc(Cl)c(-n2c(C)nc3cnn(C)c3c2=O)cc1SCC(F)(F)F [Compound 152]
efficacy in % (spider mites killed) ([1]; application rate 500 g/ha): 90%

Cc1cc(Cl)c(-n2nnc3cnn(C)c3c2=O)cc1SCC(F)(F)F [Compound 154]
efficacy in % (spider mites killed) ([1]; application rate 500 g/ha): 90%

Cn1ncc2ncn(-c3cc([S+]([O-])CC(F)(F)F)c(Cl)cc3F)c(=O)c21 (stereo not shown) [Compound 156]
efficacy in % (spider mites killed) ([1]; application rate 500 g/ha): 100%

Cc1cc(Cl)c(-n2cnc3cnn(C)c3c2=O)cc1[S+]([O-])CC(F)(F)F (stereo not shown) [Compound 158]
efficacy in % (spider mites killed) ([1]; application rate 500 g/ha): 100%

Cc1cc(F)c(-n2c(C)nc3cnn(C(C)C)c3c2=O)cc1[S+]([O-])CC(F)(F)F (stereo not shown) [Compound 166]
efficacy in % (spider mites killed) ([1]; application rate 500 g/ha): 100%

Cc1cc(F)c(-n2cnc3nn(C)cc3c2=O)cc1SCC(F)(F)F [Compound 173]
efficacy in % (spider mites killed) ([1]; application rate 500 g/ha): 90%

Cc1cc(F)c(-n2c(C)nc3nn(C)cc3c2=O)cc1SCC(F)(F)F [Compound 174]
efficacy in % (spider mites killed) ([1]; application rate 100 g/ha): 90%

CCn1cc2c(=O)n(-c3cc(SCC(F)(F)F)c(C)cc3F)cnc2n1 [Compound 176]
efficacy in % (spider mites killed) ([1]; application rate 500 g/ha): 90%

Cc1cc(F)c(-n2cnc3ncn(C)c3c2=O)cc1[S+]([O-])CC(F)(F)F (stereo not shown) [Compound 178]
efficacy in % (spider mites killed) ([1]; application rate 500 g/ha): 100%

Cc1cc(F)c(-n2cnc3c(ncn3C)c2=O)cc1[S+]([O-])CC(F)(F)F (stereo not shown) [Compound 179]
efficacy in % (spider mites killed) ([1]; application rate 500 g/ha): 100%

Cc1cc(F)c(-n2cnc3c(C)nsc3c2=O)cc1SCC(F)(F)F [Compound 180]
efficacy in % (spider mites killed) ([1]; application rate 500 g/ha): 90%

Cc1nc2c(=O)n(-c3cc([S+]([O-])CC(F)(F)F)c(C)cc3F)c(C)nc2s1 (stereo not shown) [Compound 185]
efficacy in % (spider mites killed) ([1]; application rate 500 g/ha): 90%

Cc1nc2c(=O)n(-c3cc([S+]([O-])CC(F)(F)F)c(C)cc3C)c(C)nc2s1 (stereo not shown) [Compound 186]
efficacy in % (spider mites killed) ([1]; application rate 500 g/ha): 90%

Cc1nc2c(=O)n(-c3cc(SCC(F)(F)F)c(C)cc3F)cnc2s1 [Compound 189]
efficacy in % (spider mites killed) ([1]; application rate 500 g/ha): 90%

Cc1nc2c(=O)n(-c3cc([S+]([O-])CC(F)(F)F)c(C)cc3F)cnc2s1 (stereo not shown) [Compound 190]
efficacy in % (spider mites killed) ([1]; application rate 500 g/ha): 90%

Cc1cc(F)c(-n2cnc3nsc(C(C)(C)C)c3c2=O)cc1[S+]([O-])CC(F)(F)F (stereo not shown) [Compound 192]
efficacy in % (spider mites killed) ([1]; application rate 500 g/ha): 90%

Cc1cc(F)c(-n2cnc3onc(C(C)C)c3c2=O)cc1SCC(F)(F)F [Compound 193]
efficacy in % (spider mites killed) ([1]; application rate 500 g/ha): 100%

Cc1cc(F)c(-n2cnc3onc(C(F)(F)F)c3c2=O)cc1SCC(F)(F)F [Compound 197]
efficacy in % (spider mites killed) ([1]; application rate 500 g/ha): 100%

CCc1nsc2ncn(-c3cc([S+]([O-])CC(F)(F)F)c(C)cc3F)c(=O)c12 (stereo not shown) [Compound 203]
efficacy in % (spider mites killed) ([1]; application rate 500 g/ha): 100%

Cc1cc(F)c(-n2cnc3c(C)n(C)nc3c2=O)cc1SCC(F)(F)F [Compound 213]
efficacy in % (spider mites killed) ([1]; application rate 500 g/ha): 100%

Cc1cc(F)c(-n2cnc3c(C)n(C)nc3c2=O)cc1[S+]([O-])CC(F)(F)F (stereo not shown) [Compound 214]
efficacy in % (spider mites killed) ([1]; application rate 500 g/ha): 90%

Cc1cc(F)c(-n2cnc3cn(C)nc3c2=O)cc1[S+]([O-])CC(F)(F)F (stereo not shown) [Compound 216]
efficacy in % (spider mites killed) ([1]; application rate 500 g/ha): 100%

Cc1cc(F)c(-n2cnc3csc(C)c3c2=O)cc1SCC(F)(F)F [Compound 217]
efficacy in % (spider mites killed) ([1]; application rate 500 g/ha): 90%

Cc1cc(F)c(-n2cnc3csc(C)c3c2=O)cc1[S+]([O-])CC(F)(F)F (stereo not shown) [Compound 218]
efficacy in % (spider mites killed) ([1]; application rate 500 g/ha): 90%

Cc1cc(F)c(-n2cnc3c(C)scc3c2=O)cc1SCC(F)(F)F [Compound 219]
efficacy in % (spider mites killed) ([1]; application rate 500 g/ha): 100%

Cc1cc(F)c(-n2cnc3c(C)scc3c2=O)cc1[S+]([O-])CC(F)(F)F (stereo not shown) [Compound 220]
efficacy in % (spider mites killed) ([1]; application rate 500 g/ha): 90%

Cc1cc2ncn(-c3cc([S+]([O-])CC(F)(F)F)c(C)cc3F)c(=O)c2o1 (stereo not shown) [Compound 222]
efficacy in % (spider mites killed) ([1]; application rate 500 g/ha): 100%

O=[N+]([O-])c1cc(SSc2ccc(Cl)c([N+](=O)[O-])c2)ccc1Cl [XIX-4, 1,1′-Disulphanediylbis(4-chloro-3-nitrobenzene)]
chromatographic logP ([2]; pH 2.7, log P[a]): 4.58
chromatographic logP ([2]; pH 7.8, log P[b]): 4.58

O=[N+]([O-])c1cc(SSc2ccc(F)c([N+](=O)[O-])c2)ccc1F [XIX-5, 1,1′-Disulphanediylbis(4-fluoro-3-nitrobenzene)]
chromatographic logP [2, 3]: 3.83
chromatographic logP [2, 4]: 3.79

O=[N+]([O-])c1cc(SSc2cc([N+](=O)[O-])c(Cl)cc2Cl)c(Cl)cc1Cl [XIX-6, 1,1′-Disulphanediylbis(2,4-dichloro-5-nitrobenzene)]
chromatographic logP [2, 3]: 5.69
chromatographic logP [2, 4]: 5.64

Cc1cc(F)c(N)cc1S [XVI-1, 5-Amino-4-fluoro-2-methylbenzenethiol]
chromatographic logP [2, 5]: 3.7

Nc1ccc(Cl)c(S)c1 [XVI-3, 5-Amino-2-chlorobenzenethiol]
chromatographic logP [2, 5]: 1.64

CC(=O)Nc1cc(SC(C)=O)c(C)cc1F [XVII-1, S-(5-Acetamido-4-fluoro-2-methylphenyl)ethanethioate]
chromatographic logP [2, 5]: 1.78

Nc1ccc(Cl)c(SSc2cc(N)ccc2Cl)c1 [XVIII-3, 3,3′-Disulphanediylbis(4-chloroaniline)]
chromatographic logP [2, 5]: 3.31
chromatographic logP [2, 6]: 3.35

Nc1cc(SSc2ccc(Cl)c(N)c2)ccc1Cl [XVIII-4, 3,3′-Disulphanediylbis(6-chloroaniline)]
chromatographic logP [2, 5]: 3.84
chromatographic logP [2, 6]: 3.83

Nc1cc(SSc2ccc(F)c(N)c2)ccc1F [XVIII-5, 3,3′-Disulphanediylbis(6-fluoroaniline)]
chromatographic logP [2, 5]: 2.98
chromatographic logP [2, 6]: 2.97

Nc1cc(SSc2cc(N)c(Cl)cc2Cl)c(Cl)cc1Cl [XVIII-6, 3,3′-Disulphanediylbis(4,6-dichloroaniline)]
chromatographic logP [2, 5]: 5.14
chromatographic logP [2, 6]: 4.95
